# Laboratory results published in US6784208B2, “Method for preventing and treating visceral pain and gastrointestinal disorders” (Warner-Lambert Company, priority 2001, dated 2004).
# Read-outs that look alike come from different tables or passages of the source.
# Columns and labels:
# [1] = tested on: TNBS-induced chronic visceral allodynia; details: cited from earlier work
# [2] = tested on: TNBS-induced chronic visceral allodynia; assay: TNBS-induced chronic visceral allodynia in rats (colonic distension); format: in vivo, rat; details: for Inhibition at 1 h (%) of the TNBS-induced decrease in the pain threshold: 1 h before colonic distension, rats
# Description: In this experimental model of colonic distension in awake rats, previous injection of TNBS into the proximal colon had lowered the visceral pain threshold.
# Male Sprague-Dawley rats weighing 340-400 g are used. The animals are housed 3 per cage in a regulated environment (20±1° C., 50±5% humidity, with light 8:00 am to 8:00 pm). At day 0, under anesthesia (ketamine 80 mg/kg ip.; acepromazine 12 mg/kg ip.), the injection of TNBS (50 mg/kg in ethanol 30%), or saline (1.5 ml/kg) for control rats, is performed into the proximal colon wall (1 cm from the cecum). After the surgery, animals are individually housed in polypropylene cages and kept in a regulated environment (20±1° C., 50±5% humidity, with light 8:00 a.m. to 8:00 p.m.) during 7 days. At day 7 after TNBS administration, a balloon (5-6 cm length) is inserted by anus, and kept in position (tip of balloon 5 cm from the anus) by taping the catheter to the base of the tail. Oral administration of gabapentin or the compound of formula Ia is performed 1 h before the colonic distension cycle: the balloon is progressively inflated by steps of 5 mm Hg (0.667 kPa), from 0 to 75 mm Hg, each step of inflation lasting 30 s. Each cycle of colonic distension is controlled by a standard barostat. The threshold (mm Hg) corresponds to the pressure which produced the first abdominal contraction, and the cycle of distension is then discontinued. The colonic threshold is determined after performance of four cycles of distension on the same animal.
# Data is analyzed by comparing test compound-treated groups with a TNBS only-treated group and the control group. Mean and SEM are calculated for each group. The antiallodynic activity of each oral dose of the test compound is calculated as follows: [formula]
# where A=mean threshold of the test compound-treated group,
# T=mean threshold of the TNBS only-treated group,
# C=mean threshold of the control group.
# The results measured in the test compound-treated groups are expressed in % inhibition of the TNBS-induced decrease in the pain threshold. Statistical significance between each group was determined by using a one-way ANOVA followed by Student's unpaired t-test; differences were considered statistically significant at p<0.05.
# [3] = tested on: LPS-induced rectal hypersensitivity; assay: LPS-induced rectal hypersensitivity in rats (rectal distension, abdominal contractions); format: in vivo, rat; details: for inhibition of the number of abdominal contractions induced by rectal distension: distension at 0.4 ml, LPS treated rats
# Description: Animals are surgically prepared for electromyography: rats are anaesthetized by intraperitoneal injection of acepromazine (0.6 mg/kg) and ketamine (120 mg/kg). […] Electrodes are exteriorized on the back of the neck and protected by a glass tube attached to the skin. Animals are individually housed in polypropylene cages and kept in a temperature-controlled room (21° C.). Food (UAR pellets, Epinay, France) and water are provided ad libitum.
# Electromyographic recordings begin five days after surgery. The electrical activity of abdominal striated muscles is recorded with an electroencephalograph machine (Mini VIII Alvar, Paris, France) using a short time constant (0.03 s) to remove low-frequency signals (<3 Hz) and a paper speed of 3.6 cm/min. Spike bursts are recorded as an index of abdominal contractions.
# Distension procedure: Rats are placed in plastic tunnels (6 cm diameter×25 cm long), where they cannot move, escape, or turn around, in order to prevent damage to the balloon. Animals are accustomed to this procedure for four days before rectal distension in order to minimize stress reactions during experiments. The balloon used for distension is an arterial embolectomy catheter (Fogarty, Edwards Laboratories Inc.). Rectal distension is performed by insertion of the balloon (2 mm diameter×2 cm long) into the rectum, at 1 cm from the anus, and catheter is fixed at the base of the tail. It is inflated progressively with tepid water by steps of 0.4 ml, from 0 to 1.2 ml, each step of inflation lasting 5 min. To detect possible leakage, the volume of water introduced in the balloon is checked by complete removal with a syringe at the end of the distension period.
# Experimental protocol: Rats are injected i.p. with LPS (1 mg/kg (Escherichia coli, serotype O111:B4) Sigma-Aldrich chemical Co., St Louis, Mo.) or its vehicle, and rectal distension with concomitant electromyographic recording of abdominal contractions is performed 9 and 12 h after this administration. To determine the antinociceptive properties of gabapentin and the compound of formula Ia in hyperalgesia conditions, gabapentin (10 and 30 mg/kg) and the compound of formula Ia (0.01, 0.03 and 0.1 mg/kg) or the vehicle (NaCl 0.9% 0.3 ml/rat) are administered per os 1 h before rectal distension but preceded (12 h) by injection of LPS (1 mg/kg i.p.).
# Drugs: All compounds were dissolved in sterile NaCl (0.9% isotonic saline) immediately before use.
# Statistics: Statistical analysis of the number of abdominal contractions occurring during each period of rectal distension is performed by one-way ANOVA followed by parametric Student's unpaired t test.
molecule,measurement,setting,value
1-(aminomethyl)cyclohexane acetic acid [gabapentin],effect on TNBS-induced colonic hypersensitivity,[1]; model of chronic allodynia (Diop et al. 1998),suppress
same,effect on colonic threshold,"[1]; s.c. route, control conditions",not to modify the colonic threshold
same,Inhibition at 1 h (%) of the TNBS-induced decrease in the pain threshold,[2]; 100 mg/kg p.o.,14.7 ± 5.1%
same,Inhibition at 1 h (%) of the TNBS-induced decrease in the pain threshold,[2]; 300 mg/kg p.o.,48.6 ± 13.3%
same,Inhibition at 1 h (%) of the TNBS-induced decrease in the pain threshold,[2]; 500 mg/kg p.o.,64.9 ± 10.5%
same,Inhibition at 1 h (%) of the TNBS-induced decrease in the pain threshold,[2]; 1000 mg/kg p.o.,75.2 ± 6.1%
same,"median effective dose (ED50), antiallodynic activity","[2]; p.o., TNBS-treated rats",321 mg/kg
same,inhibition of the number of abdominal contractions induced by rectal distension,"[3]; 10 mg/kg p.o., not significant",24.9%
same,inhibition of the number of abdominal contractions induced by rectal distension,[3]; 30 mg/kg p.o.,85.3%
"NC[C@]1(CC(=O)O)C[C@H]2CC[C@H]2C1 [compound of formula Ia, (1α,3α,5α)-3-aminomethyl-bicyclo[3.2.0]heptane-3-acetic acid]",Inhibition at 1 h (%) of the TNBS-induced decrease in the pain threshold,[2]; 3 mg/kg p.o.,21.7 ± 3.0%
same,Inhibition at 1 h (%) of the TNBS-induced decrease in the pain threshold,[2]; 10 mg/kg p.o.,34.2 ± 5.7%
same,Inhibition at 1 h (%) of the TNBS-induced decrease in the pain threshold,[2]; 30 mg/kg p.o.,58.8 ± 6.2%
same,Inhibition at 1 h (%) of the TNBS-induced decrease in the pain threshold,[2]; 60 mg/kg p.o.,90.4 ± 9.8%
same,ED50,"[2]; Rattus norvegicus, po, TNBS-treated rats, read-out: median effective dose (ED50), antiallodynic activity",14.4 mg/kg
same,effect on the number of abdominal contractions induced by rectal distension,"[3]; 0.01, 0.03 and 0.1 mg/kg po, distension at 0.4 ml after LPS treatment (FIG. 1)",inhibits in a dose-related manner
same,fold more potent than gabapentin,"[3]; LPS-induced rectal hypersensitivity model, p.o.",about 500 fold
same,ED50,"[3]; Rattus norvegicus, po, distension at 0.4 ml after LPS treatment, read-out: ED50, inhibition of abdominal contractions induced by rectal distension",0.037 mg/kg
CN1CC[C@]23c4c5ccc(O)c4O[C@H]2[C@@H](O)C=C[C@H]3[C@H]1C5 [morphine],effect on colonic threshold,"[1]; s.c., both TNBS-treated animals and controls",increased the colonic threshold
